Laboratory results from ChEMBL document CHEMBL3853280, “Unexpected Metabolic Versatility in a Combined Fungal Fomannoxin/Vibralactone Biosynthesis” (2016).
Values after ≈ are worked out from the molar mass of the structure shown.

How the values were obtained:
Type in all cases: functional
Aspergillus fumigatus = assay: Antifungal activity against Aspergillus fumigatus by broth dilution assay
Trichophyton benhamiae = assay: Antifungal activity against Arthroderma benhamiae by broth dilution assay
[1] = Antifungal activity against Penicillium notatum by broth dilution assay; settings: Penicillium chrysogenum

Row | SMILES | MIC (Aspergillus fumigatus) | MIC (Trichophyton benhamiae) | MIC [1]
1 | C=C(C)COc1ccc(C(=O)OC)cc1CO | > 100 µg/mL | 25 µg/mL (≈ 106 µM) | 25 µg/mL (≈ 106 µM)
2 | C=C(C)COc1ccc(C(=O)OC)cc1C=O | 50 µg/mL (≈ 213 µM) | 6.25 µg/mL (≈ 26.7 µM) | 25 µg/mL (≈ 107 µM)
3 | COC(=O)c1ccc(OC=C(C)C)cc1 | > 100 µg/mL | 100 µg/mL (≈ 485 µM) | 25 µg/mL (≈ 121 µM)
4 | COC(=O)c1ccc(OC=C(C)C)c(CO)c1 | 50 µg/mL (≈ 212 µM) | 6.25 µg/mL (≈ 26.5 µM) | 25 µg/mL (≈ 106 µM)
5 | CC(=O)OCC1=C[C@@]2(CC=C(C)C)C(=O)O[C@H]2C1 | > 100 µg/mL | 50 µg/mL (≈ 200 µM) | 25 µg/mL (≈ 99.9 µM)
6 | CC(C)=CC[C@@]12C=C(CO)C[C@@H]1OC2=O | > 100 µg/mL | 50 µg/mL (≈ 240 µM) | 25 µg/mL (≈ 120 µM)
7 | CC1=CC=C(CC2CCOC2=O)C(=O)OC1 (centres undefined) | > 100 µg/mL | > 100 µg/mL | 25 µg/mL (≈ 112 µM)
8 | CC(C)=C/C=C/C=C1\CCOC1=O | > 100 µg/mL | 12.5 µg/mL (≈ 70.1 µM) | 25 µg/mL (≈ 140 µM)
